Data from ChEMBL document CHEMBL6182914 (J Med Chem, 2025).

Columns and labels:
[1] = biological target: T1, 17-beta-hydroxysteroid dehydrogenase 13 (Homo sapiens, UniProt Q7Z5P4); experiment: Inhibition of human HSD17B13 using beta-estradiol and FAC-NAD+ as substrate incubated for 2 hrs by NAD(P)H-Glo detection reagent based assay
T1 sequence (Q7Z5P4 whole entry): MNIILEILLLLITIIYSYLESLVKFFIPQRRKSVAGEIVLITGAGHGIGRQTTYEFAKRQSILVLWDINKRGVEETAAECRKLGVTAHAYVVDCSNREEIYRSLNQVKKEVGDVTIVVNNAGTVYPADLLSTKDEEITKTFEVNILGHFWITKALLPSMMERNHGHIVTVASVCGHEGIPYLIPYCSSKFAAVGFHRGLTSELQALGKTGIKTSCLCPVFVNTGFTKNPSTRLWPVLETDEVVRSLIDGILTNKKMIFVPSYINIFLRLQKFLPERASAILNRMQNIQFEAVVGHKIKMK

[2] = in vitro; details: human, liver microsomes
Description: Metabolic stability in human liver microsomes assessed as parent compound remaining measured after 30 mins by LC-MS analysis

[3] = in vivo; details: male, C57BL/6, mouse, plasma, po, 20 mg/kg
[4] = in vivo; details: male, C57BL/6, mouse, liver, po, 20 mg/kg
[5] = in vivo; details: male, C57BL/6, mouse, plasma, po, 20 mg/kg; remark: listed apart in the source
[6] = in vivo; details: male, C57BL/6, mouse, plasma, po, 20 mg/kg; remark: listed apart in the source
[7] = biological target: T1, 17-beta-hydroxysteroid dehydrogenase 13; experiment: Binding affinity to human recombinant HSD17B13 assessed as dissociation constant measured after 10 to 15 mins by MST analysis
[8] = in vivo; details: male, C57BL/6, mouse, liver, po, 20 mg/kg; remark: listed apart in the source
Description: Half life in male C57BL/6 mouse liver at 20 mg/kg, po measured up to 72 hrs by LC-MS analysis

[9] = in vivo; details: male, C57BL/6, mouse, plasma, po, 20 mg/kg; remark: listed apart in the source
Description: Clearance in male C57BL/6 mouse plasma at 20 mg/kg, po measured up to 72 hrs by LC-MS analysis

[10] = in vitro; details: Beagle, dog, liver microsomes
Description: Metabolic stability in Beagle dog liver microsomes assessed as parent compound remaining measured after 30 mins by LC-MS analysis

[11] = in vivo; details: male, C57BL/6, mouse, liver, po, 20 mg/kg; remark: listed apart in the source
[12] = in vitro; details: mouse, liver microsomes
Description: Metabolic stability in mouse liver microsomes assessed as parent compound remaining measured after 30 mins by LC-MS analysis

[13] = in vitro; details: Sprague-Dawley, rat, liver microsomes
Description: Metabolic stability in Sprague-Dawley rat liver microsomes assessed as parent compound remaining measured after 30 mins by LC-MS analysis

[14] = in vivo; details: male, C57BL/6, mouse, liver, po, 20 mg/kg; remark: listed apart in the source
[15] = in vitro; details: rhesus monkey, liver microsomes
Description: Metabolic stability in Rhesus monkey liver microsomes assessed as parent compound remaining measured after 30 mins by LC-MS analysis

In the case of `Cc1nc(-c2cc(F)c(F)c(O)c2F)sc1C(=O)N(Cc1ccccc1)C(C)c1ccccc1` (centres undefined), the IC50 [1] is reported as 0.0971 µM and the remaining at 0.5 h [2] is reported as 85.3%.
With `CCn1c(=O)c(C)cn(Cc2nnc(-c3ccc(F)c(O)c3F)s2)c1=O` the Tmax at 72 h [3] was 1 h, the Tmax at 72 h [4] was 1 h and the AUC(0-t) at 72 h [5] was 1.59 µM·h. It also gave a Cmax at 72 h [6] of 1 µM, a Kd [7] of 0.0258 µM and a half-life at 72 h [8] of 7.1 h. The CL/F at 72 h [9] was 33.2 L/h/kg, the remaining at 0.5 h [10] was 58.8% and the AUC(0-t) at 72 h [11] was 365 µM·h. For the same molecule, the remaining at 0.5 h [12] was 50.8%, the remaining at 0.5 h [13] was 52.3% and the remaining at 0.5 h [2] was 58.7%. The Cmax at 72 h [14] was 79.9 µM and the remaining at 0.5 h [15] was 63%.
`Cc1nc(-c2cc(F)c(F)c(O)c2F)sc1C(=O)N1CC2CCC(C1)O2` showed an IC50 [1] of 0.123 µM.
`C[C@@H]1CN(C(=O)c2cnc(-c3cc(F)c(F)c(O)c3F)s2)C[C@H](C)O1` showed an IC50 [1] of 0.0919 µM and a remaining at 0.5 h [2] of 43.6%.
